# Test results from paper PMC10533412, “Phosphoantigens glue butyrophilin 3A1 and 2A1 to activate Vγ9Vδ2 T cells” (Nature, 2023).
# Where “and” joins values, the source holds several entries; their conditions need not be identical. Equal values may be shown once.
# What was measured:
# [1] = system: BTN2A−/− MIA PaCa-2 (BTN2A1/BTN2A2 KO) cells; experiment: Cell killing assay with BTN2A−/− MIA PaCa-2 (BTN2A1/BTN2A2 KO) cells expressing BTN2A1/BTN2A2 variants; conditions: cells expressing the BTN2A1 variant given as label; for Mean response (Fig. 6h, Dunnett test details): N = 6
# Method: (§2) MIA PaCa-2 cells were infected with lentivirus bearing luciferase transgene. Luciferase-positive cells were plated at 5.0 × 10^3 cells per well in 384-well plates 1 day before transfection. All plasmids were transfected into BTN2A^−/− MIA PaCa-2 (BTN2A1/BTN2A2 KO) cells using Lipofectamine 2000 reagent. […] Stable-lite luciferase (Vazyme) was added to each well and the luciferase signal was immediately measured by using the PerkinElmer EnVision microplate reader.
# (§3) Percentage of lysis was calculated using the following equation: percentage of specific lysis = (maximum luciferase − experimental luciferase)/maximum luciferase × 100.
# [2] = system: MIA PaCa-2 cells; experiment: Cell killing assay: cytotoxicity of Vγ9Vδ2 T cells towards pAg- or zoledronate-treated MIA PaCa-2 cells (luciferase); format: cell-based, human; conditions: Homo sapiens, MIA PaCa-2, Supplementary Table 4; read-out: EC50 (M) for MIA PaCa-2 cell lysis mediated by HMBPP analogs and Vγ9Vδ2 T cells
# Method: as §2, §3
# [3] = target: T1, preconditioned BTN2A1–BTN3A1 B30.2 complex (Homo sapiens, UniProt O00481+Q7KYR7); experiment: ITC: pAg binding to the preconditioned BTN2A1 B30.2 and BTN3A1 B30.2 complex; conditions: ITC; Supplementary Table 4; read-out: KD (M) for phosphoantigen binding to the pre-conditioned 2A1 B30.2 and 3A1 B30.2
# T1 construct: The BTN3A1 B30.2 domain was expressed and purified as described previously; 6xHis; made in house; host or cells: Escherichia coli BL21 (DE3) for BTN2A1 B30.2
# T1 sequence (O00481 322-513 limits assumed): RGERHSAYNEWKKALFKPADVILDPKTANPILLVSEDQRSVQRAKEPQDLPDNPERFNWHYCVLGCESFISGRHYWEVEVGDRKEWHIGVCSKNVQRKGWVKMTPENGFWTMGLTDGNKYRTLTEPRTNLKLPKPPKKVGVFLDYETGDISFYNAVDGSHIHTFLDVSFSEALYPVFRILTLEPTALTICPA
# T1 sequence (Q7KYR7 316-527 limits assumed): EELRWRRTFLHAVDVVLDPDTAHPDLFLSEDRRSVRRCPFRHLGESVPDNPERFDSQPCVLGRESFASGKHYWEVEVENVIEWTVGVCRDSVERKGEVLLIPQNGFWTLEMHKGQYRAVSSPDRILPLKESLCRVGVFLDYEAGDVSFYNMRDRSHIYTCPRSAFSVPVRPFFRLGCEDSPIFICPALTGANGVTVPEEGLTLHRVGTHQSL
# Method: ITC binding fits were calculated using MicroCal Analysis software.
# For HMBPP binding to the preconditioned BTN2A1 B30.2 and BTN3A1 B30.2 complex, BTN2A1 B30.2 (20 µM) and BTN3A1 B30.2 (10 µM) were incubated in the buffer at a 2:1 ratio and loaded into the sample cell, and the injection syringe was filled with buffer containing 100 µM HMBPP.
# For DMAPP/IPP binding to the preconditioned BTN2A1 B30.2 and BTN3A1 B30.2 complex, BTN2A1 B30.2 (200 µM) and BTN3A1 B30.2 (100 µM) were incubated in buffer at a 2:1 ratio and loaded into the sample cell, and the injection syringe was filled with buffer containing 1 mM DMAPP/IPP.
# For other pAgs, their concentrations were adjusted to 500 µM, and BTN2A1 B30.2 and BTN3A1 B30.2 were adjusted to 100 µM and 50 µM at a 2:1 ratio.
# [4] = system: MIA PaCa-2 cells; experiment: AFM-SCFS binding force between a Vγ9Vδ2 T cell and a MIA PaCa-2 cell; format: cell-based, human; design: binding force, Mean, Fig. 6b / binding force, Median, Fig. 6b: unit not given here; conditions: second panel (Ctrl, ZOL, HMBPP-15, HMBPP-15+ZOL)
# Method: The AFM-SCFS analysis procedure was performed using the JPK CellHesion unit as previously described, and closely followed our previously reported protocol for APCs[4]. […] The glass disks were quickly transferred to an AFM adapter with immediate addition of 1 ml of fresh medium (DMEM: 10% FBS and 1% penicillin–streptomycin). […] The raw data were normalized to the background readings. Blank readings for each set of affinity measurements (Vγ9Vδ2 T cells touching the glass surface) were collected immediately before each assay to perform background subtraction. All data were analysed using the JPK image processing software. […] The following steps were the same as described above.
# [5] = system: BTN2A−/− MIA PaCa-2 (BTN2A1/BTN2A2 KO) cells; experiment: IFNγ release from Vγ9Vδ2 T cells in response to zoledronate stimulation of BTN2A−/− MIA PaCa-2 cells expressing BTN2A1 variants; format: cell-based, human; design: unit not given here; conditions: 6 values
# [6] = system: BTN2A−/− MIA PaCa-2 (BTN2A1/BTN2A2 KO) cells; experiment: TNF secretion by Vγ9Vδ2 T cells co-cultured with zoledronate-treated BTN2A−/− MIA PaCa-2 cells expressing BTN2A1 variants; format: cell-based, human; conditions: n=6
# Method: (§1) BTN2A^−/− MIA PaCa-2 (BTN2A1/BTN2A2 KO) cells were plated at 1.0 × 10^4 cells per well in 96-well plates 1 day before transfection. […] The medium was then aspirated and cells were washed four times with PBS at room temperature. Vγ9Vδ2 T cells (1.0 × 10^5 cells per well) were then added and cocultured with MIA PaCa-2 cells, and culture supernatants were collected after 16 h and assayed for TNF levels using a TNF human uncoated ELISA kit (Invitrogen). The assay of CHO-K1 cells (infected with lentivirus of BTN3A1 and CD80) was performed according to the same methods as for the MIA PaCa-2 cells[22],[23].
# [7] = system: BTN3A1+CD80+ CHO-K1 cells; experiment: TNF secretion by Vγ9Vδ2 T cells co-cultured with zoledronate-treated BTN3A1+CD80+ CHO-K1 cells; format: cell-based, Chinese hamster; conditions: Fig. 3c, ii
# Method: as §1
molecule,measurement,setting,value
2A1 WT,"Mean response (Fig. 6h, Dunnett test details)",[1]; Row 1 (-6.4),1.143
same,"Mean response (Fig. 6h, Dunnett test details)",[1]; Row 2 (-5.8),3.802
same,"Mean response (Fig. 6h, Dunnett test details)",[1]; Row 3 (-5.2),14.85
same,"Mean response (Fig. 6h, Dunnett test details)",[1]; Row 4 (-4.6),21.48
same,"Mean response (Fig. 6h, Dunnett test details)",[1]; Row 5 (-4),24.98
same,"Response, individual replicates (Fig. 6h source data)",[1]; x = -4 (log concentration; stimulant and units not given),22.8101 and 22.1668 and 28.5464 and 27.6474 and 25.9163 and 22.7794
same,"Response, individual replicates (Fig. 6h source data)",[1]; x = -4.6 (log concentration; stimulant and units not given),21.6162 and 22.5956 and 18.2653 and 23.7306 and 21.555 and 21.0967
same,"Response, individual replicates (Fig. 6h source data)",[1]; x = -5.2 (log concentration; stimulant and units not given),14.9991 and 16.3572 and 11.8762 and 12.0557 and 14.1862 and 19.6027
same,"Response, individual replicates (Fig. 6h source data)",[1]; x = -5.8 (log concentration; stimulant and units not given),3.9587 and 2.199 and 2.053 and 2.932 and 3.753 and 7.914
same,"Response, individual replicates (Fig. 6h source data)",[1]; x = -6.4 (log concentration; stimulant and units not given),1.264 and 0.797 and 0.5929 and 0.7387 and 0.7679 and 2.697
"CC/C(=C\COP(=O)(O)OP(=O)(O)O)CO [Compound 4, (E)-4-hydroxy-3-ethyl-but-2-enyl diphosphate]",EC50,[2],4.5e-07 M
same,Kd,[3],3.26e-07 M
"C=CC/C(=C\COP(=O)(O)OP(=O)(O)O)CO [Compound 5, (E)-3-(hydroxymethyl)hexa-2,5-dienyl diphosphate]",EC50,[2],1.3e-08 M
same,Kd,[3],2.06e-07 M
"C/C(=C\COP(=O)(O)OP(=O)(O)O)C(C)O (stereo not drawn) [Compound 6, (E)-4-hydroxy-3-methylpent-2-en-1-yl diphosphate]",EC50,[2],1.8e-06 M
same,Kd,[3],1.69e-05 M
"C/C(=C\COP(=O)(O)CP(=O)(O)O)CO [Compound 7, (E)-((hydroxy((4-hydroxy-3-methylbut-2-en-1-yl)oxy)phosphoryl)methyl)phosphonic acid]",EC50,[2],1.46e-06 M
same,Kd,[3],4.62e-05 M
"C/C(=C\COP(=O)(O)C(Cl)(Cl)P(=O)(O)O)CO [Compound 8, (E)-(dichloro(hydroxy((4-hydroxy-3-methylbut-2-en-1yl)oxy)phosphoryl)methyl diphosphate]",EC50,[2],9.28e-07 M
same,Kd,[3],1.25e-05 M
"C/C(=C\COP(=O)(O)C(Cl)P(=O)(O)O)CO (stereo not drawn) [Compound 9, (E)-(chloro(hydroxy((4-hydroxy-3-methylbut-2-en-1-yl)oxy)phosphoryl)methyl)phosphonic acid]",EC50,[2],3.5e-05 M
same,Kd,[3],4.97e-05 M
"C/C(=C\COP(=O)(O)C(F)(F)P(=O)(O)O)CO [Compound 10, (E)-(difluoro(hydroxy((4-hydroxy-3-methylbut-2-en-1-yl)oxy)phosphory)methyl)phosphonic acid]",EC50,[2],5.33e-06 M
same,Kd,[3],1.15e-05 M
"C/C(=C\COP(=O)(O)C(F)P(=O)(O)O)CO (stereo not drawn) [Compound 11, (E)-(fluoro(hydroxy((4-hydroxy-3-methylbut-2-en-1-yl)oxy)phosphoryl)methyl)phosphonic acid]",EC50,[2],8.71e-07 M
same,Kd,[3],2.81e-05 M
O=P(O)(O)C(O)(Cn1ccnc1)P(=O)(O)O [Zoledronate],"binding force, Mean, Fig. 6b",[4],1524
same,"binding force, Median, Fig. 6b",[4],1525
same,Mean (Extended Data Fig. 7b),[5]; NT cells,2.056
same,Mean (Extended Data Fig. 7b),[5]; cells expressing BTN2A1 E286G,48.61
same,Mean (Extended Data Fig. 7b),[5]; cells expressing BTN2A1 E300G,78.93
same,Mean (Extended Data Fig. 7b),[5]; cells expressing BTN2A1 E307G,40.34
same,Mean (Extended Data Fig. 7b),[5]; cells expressing BTN2A1 E316G,128.5
same,Mean (Extended Data Fig. 7b),[5]; cells expressing BTN2A1 F324G,95.24
same,Mean (Extended Data Fig. 7b),[5]; cells expressing BTN2A1 K276G,55.14
same,Mean (Extended Data Fig. 7b),[5]; cells expressing BTN2A1 K283G,42.21
same,Mean (Extended Data Fig. 7b),[5]; cells expressing BTN2A1 K304G,117
same,Mean (Extended Data Fig. 7b),[5]; cells expressing BTN2A1 K311G,59.44
same,Mean (Extended Data Fig. 7b),[5]; cells expressing BTN2A1 L272G,81.83
same,Mean (Extended Data Fig. 7b),[5]; cells expressing BTN2A1 L279G,16.84
same,Mean (Extended Data Fig. 7b),[5]; cells expressing BTN2A1 L294G,44.72
same,Mean (Extended Data Fig. 7b),[5]; cells expressing BTN2A1 L297G,44.28
same,Mean (Extended Data Fig. 7b),[5]; cells expressing BTN2A1 L314G,23.31
same,Mean (Extended Data Fig. 7b),[5]; cells expressing BTN2A1 L318G,13.17
same,Mean (Extended Data Fig. 7b),[5]; cells expressing BTN2A1 L325C/A327C,59.39
same,Mean (Extended Data Fig. 7b),[5]; cells expressing BTN2A1 L325G,7.962
same,Mean (Extended Data Fig. 7b),[5]; cells expressing BTN2A1 R290A,84.46
same,Mean (Extended Data Fig. 7b),[5]; cells expressing BTN2A1 W320A,70.37
same,Mean (Extended Data Fig. 7b),[5]; cells expressing BTN2A1 WT,151.4
same,"TNF secretion by Vγ9Vδ2 T cells, Mean","[6]; Fig. 3c, i, zoledronate-treated cells expressing BTN2A1 D455G/E457R",6.214
same,"TNF secretion by Vγ9Vδ2 T cells, Mean","[6]; Fig. 3c, i, zoledronate-treated cells expressing BTN2A1 R477A",8.398
same,"TNF secretion by Vγ9Vδ2 T cells, Mean","[6]; Fig. 3c, i, zoledronate-treated cells expressing BTN2A1 T510A",6.658
same,"TNF secretion by Vγ9Vδ2 T cells, Mean","[6]; Fig. 3c, i, zoledronate-treated cells expressing BTN2A1 T510M",7.401
same,"TNF secretion by Vγ9Vδ2 T cells, Mean","[6]; Fig. 3c, i, zoledronate-treated cells expressing BTN2A1 V511A",7.427
same,"TNF secretion by Vγ9Vδ2 T cells, Mean","[6]; Fig. 3c, i, zoledronate-treated cells expressing BTN2A1 V511D",6.982
same,"TNF secretion by Vγ9Vδ2 T cells, Mean","[6]; Fig. 3c, i, zoledronate-treated cells expressing BTN2A1 V511W",7.617
same,"TNF secretion by Vγ9Vδ2 T cells, Mean","[6]; Fig. 3c, i, zoledronate-treated cells expressing BTN2A1 WT",158.2
same,"TNF secretion by Vγ9Vδ2 T cells, Mean","[6]; Fig. 3c, i, zoledronate-treated cells expressing BTN2A1 ∆C",9.364
same,"TNF secretion by Vγ9Vδ2 T cells, Mean","[6]; Fig. 3c, i, zoledronate-treated cells, NT",7.859
same,"TNF secretion by Vγ9Vδ2 T cells, Mean","[6]; Fig. 3d, zoledronate-treated cells expressing BTN2A1 H471G/I472A/Y473A",9.274
same,"TNF secretion by Vγ9Vδ2 T cells, Mean","[6]; Fig. 3d, zoledronate-treated cells expressing BTN2A1 R449A/R469A",16.58
same,"TNF secretion by Vγ9Vδ2 T cells, Mean","[6]; Fig. 3d, zoledronate-treated cells expressing BTN2A1 WT",182.7
same,"TNF secretion by Vγ9Vδ2 T cells, Mean","[6]; Fig. 3d, zoledronate-treated cells expressing BTN2A1 Y464A-T474A",9.364
same,"TNF secretion by Vγ9Vδ2 T cells, Mean","[6]; Fig. 3d, zoledronate-treated cells expressing BTN2A1 ∆C",0.6146
same,"TNF secretion by Vγ9Vδ2 T cells, Mean","[6]; Fig. 3d, zoledronate-treated cells, NT",9.612
same,"TNF secretion by Vγ9Vδ2 T cells, Mean","[7]; zoledronate-treated cells expressing BTN2A1 D455G/E457R, n=6",11.14
same,"TNF secretion by Vγ9Vδ2 T cells, Mean","[7]; zoledronate-treated cells expressing BTN2A1 R477A, n=6",8.53
same,"TNF secretion by Vγ9Vδ2 T cells, Mean","[7]; zoledronate-treated cells expressing BTN2A1 T510A, n=6",7.472
same,"TNF secretion by Vγ9Vδ2 T cells, Mean","[7]; zoledronate-treated cells expressing BTN2A1 T510M, n=6",7.874
same,"TNF secretion by Vγ9Vδ2 T cells, Mean","[7]; zoledronate-treated cells expressing BTN2A1 V511A, n=6",10.17
same,"TNF secretion by Vγ9Vδ2 T cells, Mean","[7]; zoledronate-treated cells expressing BTN2A1 V511D, n=6",6.367
same,"TNF secretion by Vγ9Vδ2 T cells, Mean","[7]; zoledronate-treated cells expressing BTN2A1 V511W, n=6",8.466
same,"TNF secretion by Vγ9Vδ2 T cells, Mean","[7]; zoledronate-treated cells expressing BTN2A1 WT, n=5",465.4
same,"TNF secretion by Vγ9Vδ2 T cells, Mean","[7]; zoledronate-treated cells expressing BTN2A1 ∆C, n=6",7.982
same,"TNF secretion by Vγ9Vδ2 T cells, Mean","[7]; zoledronate-treated cells, NT, n=6",20.41
